Reference: patent EP4324461A1, “(E)-N-CINAMOYLAMINOALKANOLES WITH MELANOGENESIS INHIBITORY ACTIVITY” (UNIWERSYTET JAGIELLONSKI, priority 2022, dated 2024)

Assays:
E. coli WP2 = assay: Ames microplate test, E. coli WP2;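 note: bacteria treated 90 min at 37 °C in 24-well plates, then indicator medium dispensed to 384-well plates and incubated 48 h before yellow-well counting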
Method: The study used the Ames microplate test (Ames MPF™ Penta 2 by Xenometrix, Allschwil, Switzerland). Growth medium, exposure medium, indicator medium, positive controls, hepatic microsomal fraction, NADP, glucose-6-phosphate, Salmonella typhimurium and Escherichia coli strains were components of the purchased experimental kit. Bacteria were grown overnight in growth medium. They were then exposed to the test compound at the appropriate concentration in exposure medium without or with the rat microsomal fraction S9 in 24-well plates for 90 min at 37 °C with shaking. Then, indicator medium was added to the wells and pipetted into 384-well plates, which were incubated for 48 hours at 37 °C without shaking. Results were assessed by counting the wells in which the medium turned yellow for each experimental condition.

Keratinocytes (HaCaT) [1] = assay: Safety, MTT test in keratinocytes; assay type: cell-based; settings: 48 hours
Method: (§1) In order to test the safety of the compounds, both normal human cells were used: keratinocytes (HaCaT), fibroblasts (BJ), primary melanocytes that occur in the skin, as well as human cancer cells: the hepatocarcinoma line HepG2 and the neuroblastoma line SH-SY5Y, which are considered a model for the assessment of hepatocytotoxicity and neurocytotoxicity. The concentrations of the tested compounds in the range of 250-100 µM were used in the studies. The cell lines used in the research were purchased from the American Type Culture Collection (ATCC) and were cultured in media recommended by the manufacturer with the addition of FBS and antibiotics in an incubator ensuring appropriate culture conditions, i.e. humidity, temperature and CO2 concentration. Cells were seeded into multiwell plates and incubated with the test compounds for 48 hours. After this time, MTT and LDH tests were performed to assess cell viability. The MTT test is based on the ability to transform the substrate: [3-(4,5-dimethyl-2-thiazolyl)-2,5-diphenyl-2H-tetrazolium bromide into a colored product only by living cells. The absorbance at 570 nm, which corresponds to the absorption maximum for the product, is directly proportional to cell viability. The LDH test is based on testing the activity of the enzyme lactate dehydrogenase in the culture medium, which is released from cells as a result of damage to the cell membrane, e.g. as a result of cell death. Triton X-100 was used as a positive control in the test. The determination is colorimetric, the substrate is transformed by the released enzyme into a colored product, an increase in absorbance indicates a larger amount of the released enzyme, and thus confirms greater damage to cell membranes. Tables 7 and 8 present the results obtained, which correspond to the viability of cells incubated with the compounds in relation to the viability of cells constituting a control sample, i.e. incubated with the solvent (DMSO) at the same concentration as in the case of the groups tested in the MTT test or in relation to the results obtained for the Triton X-100 positive control in the LDH test. They indicate that the compounds are safe at the concentrations tested. Table 7. Viability of tested normal human cell lines: keratinocytes (HaCaT), fibroblasts (BJ) and primary melanocytes after incubation with the tested compounds - determination in the MTT test (% of solvent control ± SD) and LDH (percentage of positive control - Triton X-100.

Primary melanocytes = assay: Safety, MTT test in primary melanocytes; assay type: cell-based; settings: 48 hours
Method: as §1

S. typhimurium TA98 = assay: Ames microplate test, TA98; assay type: cell-based, Salmonella typhimurium;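 note: reference level is the mean solvent-control yellow wells plus SD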
Method: (§2) Bacteria were grown overnight in growth medium.
(§3) Table 9. Ames microplate test results.

S. typhimurium TA100 = assay: Ames microplate test, TA100; assay type: cell-based, Salmonella typhimurium;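 note: reference level is the mean solvent-control yellow wells plus SD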
Method: as §2, §3

Hepatocarcinoma HepG2 [2] = assay: Safety, MTT test in HepG2; assay type: cell-based; settings: 48 hours
Method: as §1

neuroblastoma SH-SY5Y [3] = assay: Safety, LDH test in SH-SY5Y; assay type: cell-based; settings: 48 hours, positive control Triton X-100
Method: as §1

S. typhimurium TA1537 = assay: Ames microplate test, TA1537; assay type: cell-based, Salmonella typhimurium;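 note: reference level is the mean solvent-control yellow wells plus SD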
Method: as §2, §3

Fibroblasts (BJ) [4] = assay: Safety, LDH test in fibroblasts; assay type: cell-based; settings: 48 hours, positive control Triton X-100
Method: as §1

Keratinocytes (HaCaT) [5] = assay: Safety, LDH test in keratinocytes; assay type: cell-based; settings: 48 hours, positive control Triton X-100
Method: as §1

[6] = tested on: Chinese hamster ovary cell line (CHO-K1); assay: Cytotoxicity in CHO-K1 cells (MTT) before the micronucleus test; assay type: cell-based; settings: 24 hours
Method: The assay was performed using a Chinese hamster ovary cell line (CHO-K1) purchased from the American Type Culture Collection (ATCC). The cells were cultured in F-12K medium with the addition of 10% fetal bovine serum (FBS) and antibiotics (streptomycin/penicillin) in an incubator at 37 °C and 5% CO2 concentration). Before the actual micronucleus test, a cytotoxicity assessment was performed to ensure that the actual test was performed only at safe concentrations. For this purpose, cells were transferred to 96-well plates and incubated with the tested compounds for 24 hours. After this time, the MTT test was performed and cell viability was assessed in comparison to the control group (cells cultured with DMSO at the same concentration as in the case of the tested samples).

Fibroblasts (BJ) [7] = assay: Safety, MTT test in fibroblasts; assay type: cell-based; settings: 48 hours
Method: as §1

Hepatocarcinoma HepG2 [8] = assay: Safety, LDH test in HepG2; assay type: cell-based; settings: 48 hours, positive control Triton X-100
Method: as §1

neuroblastoma SH-SY5Y [9] = assay: Safety, MTT test in SH-SY5Y; assay type: cell-based; settings: 48 hours
Method: as §1

## O=C(/C=C/c1ccccc1)NCCCCCO [Compound A-133, (2E)-N-(5-hydroxypentyl)-3-phenylprop-2-enamide]
E. coli WP2; 0.5 mM, +S9
  Increase in the number of yellow wells compared to the reference level: 0.27
E. coli WP2; 0.5 mM, without S9
  Increase in the number of yellow wells compared to the reference level: 0.73
E. coli WP2; 1.0 mM, +S9
  Increase in the number of yellow wells compared to the reference level: 0.44
E. coli WP2; 1.0 mM, without S9
  Increase in the number of yellow wells compared to the reference level: 0.37
E. coli WP2; 2.0 mM, +S9
  Increase in the number of yellow wells compared to the reference level: 0.53
E. coli WP2; 2.0 mM, without S9
  Increase in the number of yellow wells compared to the reference level: 1.10
Keratinocytes (HaCaT) [1]; 100 µM
  Keratinocytes (HaCaT) MTT: 101.35±2.17 % of solvent control
Keratinocytes (HaCaT) [1]; 150 µM
  Keratinocytes (HaCaT) MTT: 101.40±2.08 % of solvent control
Keratinocytes (HaCaT) [1]; 200 µM
  Keratinocytes (HaCaT) MTT: 101.51±2.49 % of solvent control
Keratinocytes (HaCaT) [1]; 250 µM
  Keratinocytes (HaCaT) MTT: 95.53±2.80 % of solvent control
Primary melanocytes; 100 µM
  Primary melanocytes MTT: 103.69±2.57 % of solvent control
Primary melanocytes; 150 µM
  Primary melanocytes MTT: 101.88±2.47 % of solvent control
Primary melanocytes; 200 µM
  Primary melanocytes MTT: 97.05±2.96 % of solvent control
Primary melanocytes; 250 µM
  Primary melanocytes MTT: 88.88±2.26 % of solvent control
S. typhimurium TA98; 0.5 mM, +S9
  Increase in the number of yellow wells compared to the reference level: 0.50
S. typhimurium TA98; 0.5 mM, without S9
  Increase in the number of yellow wells compared to the reference level: 0.44
S. typhimurium TA98; 1.0 mM, +S9
  Increase in the number of yellow wells compared to the reference level: 0.67
S. typhimurium TA98; 1.0 mM, without S9
  Increase in the number of yellow wells compared to the reference level: 0.33
S. typhimurium TA98; 2.0 mM, +S9
  Increase in the number of yellow wells compared to the reference level: 1.00
S. typhimurium TA98; 2.0 mM, without S9
  Increase in the number of yellow wells compared to the reference level: 0.67
S. typhimurium TA100; 0.5 mM, +S9
  Increase in the number of yellow wells compared to the reference level: 0.83
S. typhimurium TA100; 0.5 mM, without S9
  Increase in the number of yellow wells compared to the reference level: 0.60
S. typhimurium TA100; 1.0 mM, +S9
  Increase in the number of yellow wells compared to the reference level: 0.78
S. typhimurium TA100; 1.0 mM, without S9
  Increase in the number of yellow wells compared to the reference level: 1.03
S. typhimurium TA100; 2.0 mM, +S9
  Increase in the number of yellow wells compared to the reference level: 0.61
S. typhimurium TA100; 2.0 mM, without S9
  Increase in the number of yellow wells compared to the reference level: 0.57
Hepatocarcinoma HepG2 [2]; 100 µM
  Hepatocarcinoma HepG2 MTT: 104.96±7.60 % of solvent control
Hepatocarcinoma HepG2 [2]; 150 µM
  Hepatocarcinoma HepG2 MTT: 100.66±7.39 % of solvent control
Hepatocarcinoma HepG2 [2]; 200 µM
  Hepatocarcinoma HepG2 MTT: 99.09±1.60 % of solvent control
Hepatocarcinoma HepG2 [2]; 250 µM
  Hepatocarcinoma HepG2 MTT: 98.92±2.34 % of solvent control
Neuroblastoma SH-SY5Y [3]; 100 µM
  Neuroblastoma SH-SYSY LDH: 5.33 percentage of positive control
Neuroblastoma SH-SY5Y [3]; 150 µM
  Neuroblastoma SH-SYSY LDH: 6.93 percentage of positive control
Neuroblastoma SH-SY5Y [3]; 200 µM
  Neuroblastoma SH-SYSY LDH: 8.49 percentage of positive control
Neuroblastoma SH-SY5Y [3]; 250 µM
  Neuroblastoma SH-SYSY LDH: 13.32 percentage of positive control
S. typhimurium TA1537; 0.5 mM, +S9
  Increase in the number of yellow wells compared to the reference level: 0.18
S. typhimurium TA1537; 0.5 mM, without S9
  Increase in the number of yellow wells compared to the reference level: 1.07
S. typhimurium TA1537; 1.0 mM, +S9
  Increase in the number of yellow wells compared to the reference level: 0.36
S. typhimurium TA1537; 1.0 mM, without S9
  Increase in the number of yellow wells compared to the reference level: 0.54
S. typhimurium TA1537; 2.0 mM, +S9
  Increase in the number of yellow wells compared to the reference level: 0.27
S. typhimurium TA1537; 2.0 mM, without S9
  Increase in the number of yellow wells compared to the reference level: 0.54
Fibroblasts (BJ) [4]; 100 µM
  Fibroblasts (BJ) LDH: 5.00 percentage of positive control
Fibroblasts (BJ) [4]; 150 µM
  Fibroblasts (BJ) LDH: 4.47 percentage of positive control
Fibroblasts (BJ) [4]; 200 µM
  Fibroblasts (BJ) LDH: 14.72 percentage of positive control
Fibroblasts (BJ) [4]; 250 µM
  Fibroblasts (BJ) LDH: 28.31 percentage of positive control
Keratinocytes (HaCaT) [5]; 100 µM
  Keratinocytes (HaCaT) LDH: 3.23 percentage of positive control
Keratinocytes (HaCaT) [5]; 150 µM
  Keratinocytes (HaCaT) LDH: 3.08 percentage of positive control
Keratinocytes (HaCaT) [5]; 200 µM
  Keratinocytes (HaCaT) LDH: 6.38 percentage of positive control
Keratinocytes (HaCaT) [5]; 250 µM
  Keratinocytes (HaCaT) LDH: 19.58 percentage of positive control
[6]; 100 µM
  % Viability [mean]: 94.6%
[6]; 150 µM
  % Viability [mean]: 97.2%
[6]; 200 µM
  % Viability [mean]: 89.1%
Fibroblasts (BJ) [7]; 100 µM
  Fibroblasts (BJ) MTT: 99.41±5.96 % of solvent control
Fibroblasts (BJ) [7]; 150 µM
  Fibroblasts (BJ) MTT: 91.68±3.64 % of solvent control
Fibroblasts (BJ) [7]; 200 µM
  Fibroblasts (BJ) MTT: 87.76±2.71 % of solvent control
Fibroblasts (BJ) [7]; 250 µM
  Fibroblasts (BJ) MTT: 82.50±3.99 % of solvent control
Hepatocarcinoma HepG2 [8]; 100 µM
  Hepatocarcinoma HepG2 LDH: 5.31 percentage of positive control
Hepatocarcinoma HepG2 [8]; 150 µM
  Hepatocarcinoma HepG2 LDH: 7.07 percentage of positive control
Hepatocarcinoma HepG2 [8]; 200 µM
  Hepatocarcinoma HepG2 LDH: 9.65 percentage of positive control
Hepatocarcinoma HepG2 [8]; 250 µM
  Hepatocarcinoma HepG2 LDH: 16.13 percentage of positive control
Neuroblastoma SH-SY5Y [9]; 100 µM
  Neuroblastoma SH-SYSY MTT: 101.50±3.33 % of solvent control
Neuroblastoma SH-SY5Y [9]; 150 µM
  Neuroblastoma SH-SYSY MTT: 100.75±3.01 % of solvent control
Neuroblastoma SH-SY5Y [9]; 200 µM
  Neuroblastoma SH-SYSY MTT: 100.62±5.99 % of solvent control
Neuroblastoma SH-SY5Y [9]; 250 µM
  Neuroblastoma SH-SYSY MTT: 100.41±1.87 % of solvent control
